Reference: publication PMC11671014 (PLOS Pathogens, 2024)
Entries after “also recorded” stand apart in the source; their conditions may differ.

How the values were obtained:
[1] = target: T1, NAE (NEDD8-activating enzyme) (Homo sapiens, UniProt Q8TBC4); test: NAE E1-E2 transthiolation HTRF assay; format: biochemical
T1 sequence (Q8TBC4 1-463): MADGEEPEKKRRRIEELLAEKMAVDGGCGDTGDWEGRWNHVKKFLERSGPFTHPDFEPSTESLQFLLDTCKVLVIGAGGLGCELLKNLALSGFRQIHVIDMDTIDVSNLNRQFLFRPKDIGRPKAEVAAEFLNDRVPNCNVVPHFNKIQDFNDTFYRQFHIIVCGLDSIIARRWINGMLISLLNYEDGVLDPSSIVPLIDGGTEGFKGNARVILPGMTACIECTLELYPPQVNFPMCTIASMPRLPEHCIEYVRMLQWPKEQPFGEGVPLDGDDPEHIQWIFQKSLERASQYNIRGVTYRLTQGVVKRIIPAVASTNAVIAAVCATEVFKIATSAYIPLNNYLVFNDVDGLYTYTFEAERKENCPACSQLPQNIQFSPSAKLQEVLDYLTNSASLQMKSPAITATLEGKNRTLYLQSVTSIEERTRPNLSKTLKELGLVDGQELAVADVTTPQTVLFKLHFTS
T1 sequence (Q13564 1-534 partner): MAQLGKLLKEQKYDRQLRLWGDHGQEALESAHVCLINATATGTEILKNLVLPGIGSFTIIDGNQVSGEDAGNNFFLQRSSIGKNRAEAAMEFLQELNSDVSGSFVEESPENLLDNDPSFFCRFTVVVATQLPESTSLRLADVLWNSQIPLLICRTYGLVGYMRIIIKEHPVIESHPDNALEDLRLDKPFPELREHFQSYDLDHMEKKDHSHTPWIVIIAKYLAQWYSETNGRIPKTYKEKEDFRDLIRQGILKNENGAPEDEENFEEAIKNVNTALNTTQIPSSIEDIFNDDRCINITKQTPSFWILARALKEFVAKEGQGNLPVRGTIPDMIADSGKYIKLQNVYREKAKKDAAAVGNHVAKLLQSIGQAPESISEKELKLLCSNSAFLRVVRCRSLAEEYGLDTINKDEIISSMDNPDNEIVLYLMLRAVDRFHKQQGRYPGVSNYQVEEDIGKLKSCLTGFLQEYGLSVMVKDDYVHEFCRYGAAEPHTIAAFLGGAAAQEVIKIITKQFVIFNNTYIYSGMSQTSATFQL
Text: (§1) An Homogeneous Time-Resolved Fluorescence (HTRF) enzyme assay was employed to evaluate compound activity against ATG7 as previously described. In this assay, a Flag-tagged ATG8 homolog (GABA type A receptor-associated protein; GABARAP) is activated by ATG7 and then transthiolated to a GST-tagged E2 (ATG3). The product of the enzyme reaction, Flag-GABARAP-ATG3-GST, is quantified by measuring FRET between Europium-Cryptate labelled monoclonal anti-Flag M2 (FLAG M2-Eu cryptate; Revvity, Cat# 61FG2KLB) and […] (Anti-GST IgG conjugated to SureLight-Allophycocyanin) (Revvity, Cat# AD0059G)). The activation and transthiolation of ubiquitin by UAE, activation and transthiolation of NEDD8 by NAE and activation and transthiolation of SUMO by SAE were all assayed in a similar fashion with appropriately tagged ubiquitin-like proteins and E2 conjugating enzymes as described.

[2] = target: T2, UAE (ubiquitin activating enzyme) (Homo sapiens, UniProt P22314); test: UAE E1-E2 transthiolation HTRF assay; format: biochemical
T2 sequence (P22314 1-1058): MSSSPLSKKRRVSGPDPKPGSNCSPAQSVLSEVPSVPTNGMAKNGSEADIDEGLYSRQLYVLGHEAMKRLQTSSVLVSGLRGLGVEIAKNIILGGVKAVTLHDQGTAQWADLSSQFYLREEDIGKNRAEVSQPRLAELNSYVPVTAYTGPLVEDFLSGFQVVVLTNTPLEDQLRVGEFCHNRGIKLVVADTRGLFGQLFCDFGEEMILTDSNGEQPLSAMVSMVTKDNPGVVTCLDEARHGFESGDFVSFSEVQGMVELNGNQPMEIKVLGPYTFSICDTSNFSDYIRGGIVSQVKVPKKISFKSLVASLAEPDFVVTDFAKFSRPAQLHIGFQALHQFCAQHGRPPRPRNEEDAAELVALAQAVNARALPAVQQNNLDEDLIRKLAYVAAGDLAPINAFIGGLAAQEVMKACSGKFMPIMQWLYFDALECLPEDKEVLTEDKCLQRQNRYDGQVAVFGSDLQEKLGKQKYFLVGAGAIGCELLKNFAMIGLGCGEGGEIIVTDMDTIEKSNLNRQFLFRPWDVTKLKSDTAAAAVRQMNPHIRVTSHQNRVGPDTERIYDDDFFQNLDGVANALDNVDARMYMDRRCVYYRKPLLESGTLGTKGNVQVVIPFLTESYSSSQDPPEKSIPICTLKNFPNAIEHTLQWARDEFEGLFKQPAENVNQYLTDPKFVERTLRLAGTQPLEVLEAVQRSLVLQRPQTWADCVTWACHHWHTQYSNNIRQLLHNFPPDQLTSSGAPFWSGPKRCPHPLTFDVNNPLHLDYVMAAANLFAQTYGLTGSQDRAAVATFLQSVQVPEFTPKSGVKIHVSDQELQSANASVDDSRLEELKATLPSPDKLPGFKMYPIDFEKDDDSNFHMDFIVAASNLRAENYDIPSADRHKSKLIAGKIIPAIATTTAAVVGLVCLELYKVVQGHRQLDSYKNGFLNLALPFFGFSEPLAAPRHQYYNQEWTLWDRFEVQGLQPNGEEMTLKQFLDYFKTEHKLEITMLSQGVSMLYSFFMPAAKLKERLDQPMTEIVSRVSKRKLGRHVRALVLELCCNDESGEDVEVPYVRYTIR
Text: as §1

PfTyrRS = PfTyrRS (Plasmodium falciparum, UniProt Q8IAR7); test: Differential scanning fluorimetry (DSF) of PfTyrRS; format: binding; conditions: for ΔTm at 50 µM: 50 μM sulfamate, tyrosine, PftRNA^Tyr, 37°C 2 h, read-out: PfTyrRS binding (DSF) Delta Tm; for ΔTm at 50 µM / PfTyrRS Tm: ATP; for Kd: estimated from DSF with an irreversible thermal unfolding model, read-out: PfTyrRS binding (DSF) apparent KD; for PfTyrRS Tm: with sulfamate, tyrosine and tRNA, apo 49.9 ± 0.6
Protocol: The effect on ML471 and analogues on the thermal stability of TyrRS enzymes was assayed as previously described. […] SYPRO Orange (Sigma-Aldrich; 5,000X concentrate in DMSO) was added to the reaction mixture at a final concentration of 5X. 25 μL of the sample was added into each well of a 96-well qPCR plate (Applied Biosystems). The plate was sealed and analysed using StepOnePlus Real-Time PCR system (Applied Biosystems). The samples were heated from 20°C to 90°C with a 1% continuous gradient. The thermal unfolding curve was plotted as the first derivative curve of the raw fluorescence values. The melting temperature (Tm), defined as the peak of the first derivative curve, was used to assess the thermal stability of protein-ligand complexes.

PfTyrRS, sequence (Q8IAR7 entry or part of it): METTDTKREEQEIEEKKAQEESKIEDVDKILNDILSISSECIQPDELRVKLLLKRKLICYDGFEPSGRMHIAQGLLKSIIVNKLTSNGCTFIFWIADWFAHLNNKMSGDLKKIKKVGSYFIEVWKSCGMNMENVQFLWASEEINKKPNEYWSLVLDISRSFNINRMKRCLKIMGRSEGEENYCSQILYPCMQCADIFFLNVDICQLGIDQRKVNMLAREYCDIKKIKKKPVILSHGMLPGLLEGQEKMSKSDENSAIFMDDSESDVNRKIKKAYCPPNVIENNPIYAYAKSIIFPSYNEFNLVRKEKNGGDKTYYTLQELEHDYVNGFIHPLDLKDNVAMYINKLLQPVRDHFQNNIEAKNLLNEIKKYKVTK

Structure (SMILES) | IC50 [1] | IC50 [2] | ΔTm at 50 µM (PfTyrRS) | Kd (PfTyrRS) | PfTyrRS Tm (PfTyrRS) | activity against NAE (in words) [1] | activity against UAE (in words) ([2]; human UAE in vitro)
Nc1ncnc2c1c(C(F)(F)F)nn2[C@@H]1O[C@H](COS(N)(=O)=O)[C@@H](O)[C@H]1O [ML107] | 75.3 ± 0.8 µM | 22.9 ± 0.7 µM | 13.6 ± 0.6 °C | 1.4 nM | 63.5 ± 0.4 °C |  | 
Nc1ncnc2c1c(Oc1ccccc1)nn2[C@@H]1O[C@H](COS(N)(=O)=O)[C@@H](O)[C@H]1O [ML470] | > 100 µM | > 100 µM | 15.7 ± 0.3 °C | 0.6 nM | 65.5 ± 0.6 °C |  | 
CC(C)c1nn([C@@H]2O[C@H](COS(N)(=O)=O)[C@@H](O)[C@H]2O)c2ncnc(N)c12 [ML471, ((2R,3S,4R,5R)-5-(4-amino-3-isopropyl-1H-pyrazolo[3,4-d]pyrimidin-1-yl)-3,4-dihydroxytetrahydrofuran-2-yl)methyl sulfamate] | > 100 µM | 85.7 ± 6.5 µM | 18 ± 0.1 °C | 0.2 nM | 67.9 ± 0.4 °C | no or very little activity | no inhibitory activity; also recorded: no or very little activity
CCOc1nn([C@@H]2O[C@H](COS(N)(=O)=O)[C@@H](O)[C@H]2O)c2ncnc(N)c12 [ML676] | 66.6 ± 1.1 µM | 73.4 ± 3.5 µM | 15.69 ± 0.01 °C | 0.6 nM | 65.5 ± 0.6 °C |  | 
CCc1nn([C@@H]2O[C@H](COS(N)(=O)=O)[C@@H](O)[C@H]2O)c2ncnc(N)c12 [ML681] | 35.3 ± 0.8 µM | 8.7 ± 0.6 µM | 16.4 ± 0.1 °C | 0.4 nM | 66.3 ± 0.5 °C |  | 
CC(C)Oc1nn([C@@H]2O[C@H](COS(N)(=O)=O)[C@@H](O)[C@H]2O)c2ncnc(N)c12 [ML723] | > 100 µM | > 100 µM | 16.2 ± 0.1 °C | 0.5 nM | 66.1 ± 0.7 °C |  | 
Nc1ncnc2c1c(OC(F)F)nn2[C@@H]1O[C@H](COS(N)(=O)=O)[C@@H](O)[C@H]1O [ML901] | 28 ± 0.6 µM | 5.39 ± 0.16 µM | 15.2 ± 0.1 °C | 0.7 nM | 65.1 ± 0.5 °C |  | 
